Results as given in patent US6472145B2, “Method and composition for modulating amyloidosis” (priority 1998, dated 2002).
Like-named read-outs stand apart in the source and are kept apart here.

Columns and labels:
K695 cells [1] = assay: Endosomal function: uptake of Tf-Tx and Tf-F labelled transferrin; assay type: cell-based, Human; conditions: 4 hrs; for impairment of endosomal function (decrease in Tf-Tx and Tf-F signals): baf A1 1 μM, NH4Cl 20 mM
Method: (§1) Endosomal function was assessed by the fluorometric quantitation of the receptor-mediated uptake of both Texas Red and fluoroscein labelled transferrin (Molecular Probes, Eugene, Oreg.)(33-35). K695 cells were maintained as exposed to various treatments as mentioned with the exception that cells were plated at a density 200,000 cells/well in 24-well plates (Corning™). Twenty-four hours after plating, cells were exposed to various treatments in DMEM supplemented with sodium pyruvate (1 mM) and 10% fetal bovine serum. At the same time as drug exposures, both transferrin-Texas Red (Tf-Tx) and transferrin-fluoroscein (Tf-F) (10 μl/ml media of 5 mg/ml stocks in PBS) were added to each well and incubated for 4 hours at 37° C. Each well was then gently washed three times with warm media and uptake of fluorescent probes quantitated at 37° C. using a Cytofluor™ 2350 fluorometric plate reader (Millipore, Mississauga, ON). Quantitation of the non-pH-dependent Tf-Tx fluorescence and the pH-dependent Tf-F fluorescence was determined using excitation filters of 590 nm (bandwidth=20 nm); 485 nm (bandwidth=20 nm) and emission filters of 645 nm (bandwidth=40 nm); 530 nm (bandwidth=25 nm), respectively. Similarly, Lysosomal function was assayed by the uptake of the fluorescent probe, Lysosensor™ Yellow/Blue DND-160 (Molecular Probes, Eugene, Oreg.)(36). Assay of Lysosensor™ uptake was performed in an identical manner to that of the fluorescent labelled transferrin conjugates with the exception that the addition of 10 μl/ml media of Lysosensor™ was taken from a 1 mM stock solution in DMSO. Quantitation of the non-pH-dependent blue fluorescence and the pH-dependent yellow fluorescence was determined using an excitation filter of 360 nm (bandwidth=40 nm) and emission filters of 460 mn (bandwidth=40 nm) and 530 nm (bandwidth =25 nm), respectively. For all three probes examined, relative fluorescence was obtained from subtraction from sister wells which had not been exposed to fluorophores. […]

K695 cells [2] = assay: Lysosomal function: Lysosensor Yellow/Blue DND-160 uptake; assay type: cell-based, Human; conditions: FCCP 5 μM and 500 nM, baf A1 1 μM, NH4Cl 20 mM, 4 hrs
Method: as §1

K695sw cells [3] = assay: Quantification of cellular ATP levels (luciferase/luciferin); assay type: cell-based, Human; conditions: various concentrations, 30 minutes or 4 hours
Method: 20 μl aliqouts of ATP standards and samples were then assayed for ATP content using a luciferase/luciferin ATP determination kit (A-6608, Molecular Probes, Eugene, Oreg.). ATP-dependent luminescence was quantified using an Optocomp® II luminometer (MGM Instruments, Hamden, Conn.) and ATP levels were determined by extrapolation from a standard curve. […] As a positive control, the effect of combined treatment with various concentrations of sodium azide and 2-deoxy-D-glucose (NaA/DG) was also examined in these studies.

[4] = system: APP carrying the AD-linked double "Swedish" mutation (K695sw cells); conditions: for Aβ release: FCCP 5 μM, 500 nM, 50 nM
Method: (§2) Human embryonic kidney (HEK) 293 cells stably transfected with either wild-type APP695 (K695 cells) or APP carrying the AD-linked double “Swedish” mutation (K695sw cells)(30) were cultured in DMEM supplemented with sodium pyruvate (1 mM) and 10% fetal calf serum as previously described (31). Cells were plated at 1,000,000 cells per well in 35 mm^2 culture dishes (Corning™) 24 hours prior to drug exposure. Preceding the addition of drugs, cultures are washed once with warm PBS (37° C.) and then exposed to various treatments in DMEM supplemented with sodium pyruvate (1 mM). Cultures were then exposed to either control media, vehicle (0.05% ethanol), or varying concentrations of FCCP (5 μM, 500 nM, 50 nM). Either 30 minutes or 4 hours after the addition of drugs, the media was removed, the cultures washed once with ice-cold PBS, and then harvested in 100 μl of ice-cold lysis buffer containing 20 mM MOPS (pH 7.2), 5 mM EDTA, 0.01% NP-40, 75 mM β-glycerol phosphate, […], […], 50 mM phosphatase substrate, […], and 1 mg/ml each of leupeptin, aprotinin and pepstatin.
(§3) To examine extracellular APP fragments, the media was retained and centrifuged at 4° C. for 10 min at 16,000 X g to remove cellular debris. Extracellular protein was then precipitated by 10% trichloroacetic acid as previously described (31). Subsequently, secreted APPsα was determined by 10% Tris-Glycine SDS-PAGE Western Blot analysis using the monoclonal antibody WO-2, generated against the first 16 amino acids of the N-terminal region of Aβ (32). Similarly, extracellular Aβ release was examined by 16% Tris-Tricine SDS-PAGE Western Blot analysis using the WO-2 antibody (32). For examination of intracellular APP fragments, cultures were harvested in ice-cold lysis buffer and then sonicated for 8 seconds on ice. Cellular protein levels were quantified using the BCA protein assay (Pierce, Rockford, Ill.) and 10 μg of cellular protein were then separated by either 10% Tris-Glycine or 16% Tris-Tricine SDS-PAGE. Intracellular C100 and total APP were quantitated, respectively, by 16% Tris-Tricine Western Blot analysis using the WO-2 antibody and 10% Tris-Glycine Western Blot analysis using an anti-APP N-terminal antibody (22C11, Boehringer Mannheim, Laval, QC). A diagram of the catabolic fragments of APP and the epitopes to which each antibody binds is depicted in FIG. 1. […] The wavy line represents the plasma membrane. The enzyme α-secretase (α-left) cleaves APP within the Aβ sequence (represented by the heavy line), resulting in release of the ectodomain fragment known as APPsα. The enzymes β and γ secretase (β, γ, right) sequentially cleave APP on either side of the Aβ sequence. β secretase cleavage results in the release of the ectodomain fragment known as APPsβ and production of the cellular fragment known as C100; following γ-secretase cleavage, extracellular Aβ is released. Probing the cellular fraction with antibody 22C11 identifies total cellular APP. Probing the cellular fraction with WO-2 identifies C100 (distinguished by molecular weight). Probing the extracellular fraction with WO-2 identifies both APPsα and Aβ (distinguished by molecular weight).
(§4) Cellular (C100 and total APP) and extracellular (APPsα and Aβ ) APP catabolic fragments were separated using SDS PAGE with either 10% Tris-Glycine (for APPsα and total APP) or 16% Tris-Tricine (for C100 and Aβ) gels. Following electrophoretic separation, proteins were transferred to nitrocellulose membranes and probed with either the monoclonal antibody WO-2 to detect C100, APPsα and Aβ, or 22C11 to detect total cellular APP. Immunoreactive bands were visualized using ECL detection (Amersham, Oakville, ON) and analyzed by standard autoradiographic and densitometric techniques as described (31).

[5] = system: wild-type APP695 (K695 cells); conditions: 4 hours
Method: as §2, §3, §4

cellular ATP levels = conditions: 30 μM FCCP for 2 hours; cited from earlier work
K695sw cells [6] = conditions: 5 μM, 500 nM or 50 nM, 24 hours
Method: Cell viability was quantified based on the exclusion of the membrane impermeant probe, YO-PRO (Molecular Probes, Eugene, Oreg.). K695sw cells were maintained and exposed to vehicle or various concentrations of FCCP as described above with the exception that cells were plated at a density of 20,000 cells/well in 96-well plates (Falcon®). Twenty-four hours after plating, cells were exposed to various treatments in DMEM supplemented with sodium pyruvate (1 mM) and 10% fetal bovine serum. At the same time as drug exposures, YO-PRO (4 μM) was added to each well and its uptake quantified every 30 minutes for 1 day at 37° C. using a Cytofluor™ 2350 fluorometric plate reader (Millipore, Mississauga, ON). As a positive control, all wells were exposed to 0.1% Triton X-100 at the end of the experiment.

[7] = system: mitochondrial membrane potential; conditions: 1 μM FCCP; cited from earlier work
APP = conditions: background; NH4Cl at high concentrations; cited from earlier work
K695sw cells [8] = conditions: previous studies; cited from earlier work
[9] = system: cells expressing wild-type APP (K695 cells); conditions: previous studies; cited from earlier work

With `N#CC(C#N)=NNc1ccc(OC(F)(F)F)cc1` [FCCP, carbonyl cyanide p-(trifluoromethoxy)phenylhydrazone] the “endosomal functioning (Tf-Tx and Tf-F signals)” value (K695 cells [1]; FCCP 5 μM and 500 nM) was “did not significantly alter endosomal functioning”, the “lysosomal function (Lysosensor fluorescence)” value (shortened to “lysosomal function”) (K695 cells [2]) was “reductions in lysosomal function, albeit not as profound” and the “cellular ATP levels” value (K695sw cells [3]) was “did not alter cellular ATP levels at any of the concentrations or time points measured”. The “production of the ectodomain fragment APPsα (APPsα release)” value ([4]; 30 min and 4 hours) was “only affected by 4 hour exposure to 5 μM FCCP”, the “formation of the C100 fragment (cellular C100)” value ([4]; 4 hours) was “concentration-dependent decrease in the formation of the C100 fragment” and the “maturation of APP via N'/O' linked glycosylation” value ([4]; 4 hours) was “neither total cellular levels of APP nor the maturation of APP via N′/O′ linked glycosylation were affected”. For the same compound, the “total cellular levels of APP” value ([4]; 4 hours) was “neither total cellular levels of APP nor the maturation of APP via N′/O′ linked glycosylation were affected”, the Aβ release ([4]; 30 min) was “concentration-dependent decrease in Aβ release” and the Aβ release ([4]; 4 hours) was “decreases in Aβ release were even more pronounced”. The APPsα production [5] was “marked concentration-dependent decrease in APPsα production”, the Aβ production [5] was “clearly inhibited Aβ production in a concentration-dependent manner” and the “maturation of APP” value [5] was “unaffected”. For the same compound, the “total levels of cellular APP” value [5] was “unaffected”, the “cellular ATP levels” value (cellular ATP levels) was “sufficient to modestly decrease cellular ATP levels” and the “cell death as measured by membrane exclusion (YO-PRO)” value (K695sw cells [6]) was “no increase in cell death”. The mitochondrial membrane potential [7] was “sufficient to alter mitochondrial membrane potential”.

In the case of `Cl.N` [NH4Cl, ammonium chloride], the “impairment of endosomal function (decrease in Tf-Tx and Tf-F signals)” value (K695 cells [1]) is given as “approximately 50%”, the “lysosomal function” value (K695 cells [2]) is given as “profound reductions in lysosomal functioning” and the “APP proteolytic processing / APP catabolism” value (APP) is given as “decrease APP proteolytic processing”.

For `CO/C1=C\C(C)=C\[C@@H](C)[C@@H](O)[C@@H](C)C/C(C)=C/C=C/[C@H](OC)[C@@H]([C@@H](C)[C@@H](O)[C@H](C)[C@@]2(O)C[C@@H](O)[C@H](C)[C@@H](C(C)C)O2)OC1=O` [baf A1, bafilomycin A1], the “impairment of endosomal function (decrease in Tf-Tx and Tf-F signals)” value (K695 cells [1]) is listed as “approximately 50%”, the “lysosomal function” value (K695 cells [2]) is listed as “profound reductions in lysosomal functioning” and the Aβ production (K695sw cells [8]) is listed as “reduced Aβ production”. The “APP proteolytic processing / APP catabolism” value (APP) was “alterations in APP catabolism which are both cell-type and APP mutation specific” and the Aβ production [9] was “lack of effect”.

For `CC[C@@]1([C@@H]2O[C@@H]([C@H]3O[C@@](O)(CO)[C@H](C)C[C@@H]3C)C[C@@H]2C)CC[C@H]([C@]2(C)CC[C@]3(C[C@H](O)[C@@H](C)[C@@H]([C@@H](C)[C@@H](OC)[C@H](C)C(=O)O)O3)O2)O1` [monensin], the “APP proteolytic processing / APP catabolism” value (APP) is given as “decrease APP proteolytic processing”.
